In brackets after ≈: the same amount, converted by molar mass.
Experiments:
UV-vis spectra = assay type: physicochemical; conditions: ethanol as solvent
Protocol: As illustrated in the UV-vis spectra, where the nitro group is positioned greatly influences the λmax. With nitro substitution on the aniline these values are around 380 and 400 nm, whereas for the two other compounds a hypsochromic shift is observed all the way down to 248 nm.
UV-vis spectra were obtained on an Agilent 8453 single-beam UV-vis spectrophotometer with a deuterium-discharge lamp for the UV range and a tungsten lamp for the visible wavelength range. Samples were analysed in an Agilent open-top UV quartz cell (10 mm, 3.0 mL) with ethanol as solvent. Wavelengths are reported in nm and molar attenuation coefficients in M^−1cm^−1.

[1] = Photolysis of compounds 1-5, 125 W medium pressure mercury vapour lamp, conversion by 1H-NMR; assay type: physicochemical; conditions: for stability under irradiation at lower pH: pH values lower than 11
Protocol: Following the procedure by Wan and Muralidharan (Wan, P.; Muralidharan, S. J. Am. Chem. Soc. 1988, 110 (13), 4336-4345) aminol 1 (compound 1) was photolysed in acetonitrile and water (7:3, v:v) at the appropriate pH using a 125 W medium pressure mercury vapour lamp. Seven experiments were performed from pH 13 to pH 1 with a concentration of around 0.68 mM, and each reaction was irradiated for. 2 hours Following liquid-liquid extraction with DCM, all reaction mixtures were analysed with ^1H-NMR spectroscopy. Initially it was expected that a mechanism similar to the nitrophenethyl alcohols (Scheme 3) would occur and the expected products would therefore be N-methyl-p-nitroaniline, phenylacetaldehyde, 2-(p-nitroaniline)acetaldehyde, and toluene
Because of this, it seems likely that following excitation to the singlet state and intersystem crossing (ISC) to the triplet state, a proton is abstracted and initiates decomposition. Two products were identified from the NMR data; p-nitroaniline and benzaldehyde. This means that there are two carbon atoms in the starting material unaccounted for (Scheme 13). A reasonable hypothesis is that they remain in the aqueous phase during extraction as formaldehyde or glyoxal.

[2] = as above; assay type: physicochemical; conditions: same conditions
S. Agalactiae = experiment: Minimum inhibitory concentration (MIC) screen, OD 600 nm; assay type: cell-based; set-up: key to Minimum inhibitory concentration, S. Agalactiae: I = inactive, i.e. below the activity threshold; conditions: screened at 100-1.6 μM; for MIC: Streptococcus agalactiae
Protocol: (§1) With compounds 6-9 and the crude degradation mixtures in hand, the minimum inhibitory concentration (MIC) was screened against a number of gram-positive and gram-negative bacteria, including E. faecalis, E. coli, P. aeruginosa, S. aureus, S. agalactiae, and S. epidermidis. To determine the activity, optical density (OD) at 600 nm was measured to estimate the concentration of bacteria at concentrations from 1.6 -100 μM. Values below 0.05 are counted as active and indicates inhibition of growth, illustrated by plotting OD against the concentration for compounds 6-9, (FIG. 9). […] Black stapled lines at 0.05 for MIC and 30% for biofilm formation indicate activity threshold values. […] No activity was observed against the gram-negative bacteria (Table 3).

S. Epidermidis [3] = experiment: as above; assay type: cell-based; set-up: key to Minimum inhibitory concentration, S. Epidermidis: I = inactive, i.e. below the activity threshold; conditions: screened at 100-1.6 μM
Protocol: as §1

S. Epidermidis [4] = experiment: Biofilm inhibition; assay type: cell-based; conditions: threshold 30% biofilm formation
Protocol: as §1

[5] = Solubility observed as precipitation in the MIC test; assay type: physicochemical; conditions: higher concentrations in the S. agalactiae MIC test
Protocol: as §1

S. Aureus = experiment: Minimum inhibitory concentration (MIC) screen, OD 600 nm; assay type: cell-based; set-up: key to Minimum inhibitory concentration, S. Aureus: I = inactive, i.e. below the activity threshold; conditions: screened at 100-1.6 μM; for MIC: Staphylococcus aureus
Protocol: as §1

[6] = Photolysis of compounds 6-9, 6 W low-pressure mercury vapor lamp, conversion by 1H-NMR; assay type: physicochemical; conditions: pH 13; acetonitrile/NaOH solution 30/70; 254 nm low-pressure lamp; 24 hours
Protocol: Aminol 6-9 (compounds 6-9) were dissolved in acetonitrile and diluted with a sodium hydroxide solution at pH 13 (30/70, V/V). Since all the compounds have strong absorption bands around 250 nm (FIG. 8), a 6 W low-pressure mercury vapor lamp was chosen as the irradiation source, since it emits mainly at 254 nm. All reactions were carried out in a 75 mL gas inlet flask (˜0.7 mM) under a constant stream of nitrogen with a quartz well cold finger for 24 hours.
Following aqueous workup, the reaction mixtures were analysed with ^1H-NMR spectroscopy. […] The photodegradation reaction for compound 6 can be seen in Scheme 21. Additionally, the two doublets at 7.47 and 8.13 ppm (Hc and Ha) have disappeared into a complicated multiplet, and the aliphatic protons around 3 ppm are no longer visible (FIG. 6).

[7] = pH 11, 2 hours irradiation, acetonitrile and water (7:3), medium pressure mercury lamp
[8] = pH 13, 2 hours irradiation, acetonitrile and water (7:3), medium pressure mercury lamp

SMILES	E (UV-vis spectra)	λmax (UV-vis spectra)	conversion after photolysis [1, 7]	conversion after photolysis [1, 8]	MIC (S. Agalactiae)	Minimum inhibitory concentration, S. Epidermidis (S. Epidermidis [3])	also measured
O=[N+]([O-])c1ccc(NCC(O)Cc2ccccc2)cc1 (centres unmarked) [Compound 1]	1740.0 M⁻¹ cm⁻¹	384 nm	100%	100%			conversion after photolysis ([1]; pH 5, 2 hours irradiation): stops completely; time to full decomposition ([1]; pH 7, extrapolated from conversion after 2 hours): ca. 6 hours; conversion in reference experiments in the dark [2]: no conversion
O=[N+]([O-])c1cccc(NCC(O)Cc2ccccc2)c1 (centres unmarked) [Compound 2]	1331.3 M⁻¹ cm⁻¹	400 nm	17%	17%			stability under irradiation at lower pH [1]: remained stable
O=[N+]([O-])c1ccc(CC(O)CNc2ccccc2)cc1 (centres unmarked) [Compound 3]	15066.6 M⁻¹ cm⁻¹	248 nm		40%			
O=[N+]([O-])c1cccc(CC(O)CNc2ccccc2)c1 (centres unmarked) [Compound 4]	17018.7 M⁻¹ cm⁻¹	248 nm		56%			
O=C(NCC(O)CNc1ccc([N+](=O)[O-])cc1)C(Cl)Cl (centres unmarked) [Compound 5]	17263.9 M⁻¹ cm⁻¹	382 nm	68%	100%			conversion after photolysis ([1]; pH 11, 2 hours irradiation, acetonitrile and water (7:3), medium pressure mercury lamp, listed as compound resembling chloramphenicol): 60%; conversion after photolysis ([1]; pH 13): Full conversion; stability under irradiation at lower pH [1]: remained stable
O=[N+]([O-])c1ccc(CC(O)CNc2cc(Cl)c(OC(F)(F)C(F)C(F)(F)F)cc2Cl)cc1 (centres unmarked) [Compound 6]					6.3 µM (≈ 3.2 µg/mL)	I	biofilm inhibition for S. epidermidis (S. Epidermidis [4]): 12.5 µM; solubility [5]: limited solubility; Minimum inhibitory concentration, S. Aureus (S. Aureus): I; photodegradation [6]: complete conversion
O=[N+]([O-])c1ccc(F)c(CC(O)CNc2cc(Cl)c(F)c(Cl)c2F)c1F (centres unmarked) [Compound 7, 1-((3,5-Dichloro-2,4-difluorophenyl)amino)-3-(2,6-difluoro-3-nitrophenyl)propan-2-ol]						I	Minimum inhibitory concentration, S. Agalactiae (S. Agalactiae): I; MIC (S. Aureus): 50 µM (≈ 20.7 µg/mL)
O=[N+]([O-])c1ccc(F)c(CC(O)CNc2cc(Cl)c(OC(F)(F)C(F)C(F)(F)F)cc2Cl)c1F (centres unmarked) [Compound 8, 1-((2,5-Dichloro-4-(1,1,2,3,3,3-hexafluoropropoxy)phenyl)amino)-3-(2,6-difluoro-3-nitrophenyl)propan-2-ol]					6.3 µM (≈ 3.42 µg/mL)	I	biofilm inhibition for S. epidermidis (S. Epidermidis [4]): 25 µM; solubility [5]: limited solubility; Minimum inhibitory concentration, S. Aureus (S. Aureus): I; conversion after photolysis [6]: 56%; photodegradation [6]: complete degradation was not achieved
O=[N+]([O-])c1ccc(F)c(CC(O)CNc2cc(Cl)cc(Cl)c2F)c1F (centres unmarked) [Compound 9, 1-((3,5-Dichloro-2-fluorophenyl)amino)-3-(2,6-difluoro-3-nitrophenyl)propan-2-ol]					50 µM (≈ 19.8 µg/mL)		MIC (S. Epidermidis [3]; Staphylococcus epidermidis): 50 µM (≈ 19.8 µg/mL); MIC (S. Aureus): 50 µM (≈ 19.8 µg/mL)
